Experimental data from the NIST ThermoML archive (doi:10.1021/acs.jced.8b00554).
± gives the expanded uncertainty stated by the source.

Details: Liquid, Vibrating tube method

CCCCCCCCCC [decane]
Details | mass density [kg/m3]
313.15 K, 100 kPa | 714.75 ± 4.3
313.15 K, 1010 kPa | 715.53 ± 4.3
313.15 K, 2000 kPa | 716.4 ± 4.3
313.15 K, 3000 kPa | 717.27 ± 4.3
313.15 K, 4000 kPa | 718.14 ± 4.3
313.15 K, 5000 kPa | 718.99 ± 4.3
313.15 K, 6010 kPa | 719.78 ± 4.3
313.15 K, 7010 kPa | 720.66 ± 4.3
313.15 K, 7990 kPa | 721.48 ± 4.3
313.15 K, 9000 kPa | 722.28 ± 4.3
313.15 K, 10000 kPa | 723.08 ± 4.3
313.15 K, 11000 kPa | 723.91 ± 4.3
313.15 K, 12000 kPa | 724.66 ± 4.3
313.15 K, 13000 kPa | 725.42 ± 4.4
313.15 K, 14010 kPa | 726.18 ± 4.4
313.15 K, 15010 kPa | 726.93 ± 4.4
313.15 K, 16000 kPa | 727.61 ± 4.4
313.15 K, 17010 kPa | 728.38 ± 4.4
313.15 K, 18010 kPa | 729.1 ± 4.4
313.15 K, 19000 kPa | 729.81 ± 4.4
313.15 K, 20000 kPa | 730.51 ± 4.4
323.15 K, 100 kPa | 706.95 ± 4.2
323.15 K, 1000 kPa | 707.77 ± 4.2
323.15 K, 1990 kPa | 708.72 ± 4.3
323.15 K, 3000 kPa | 709.63 ± 4.3
323.15 K, 4000 kPa | 710.55 ± 4.3
323.15 K, 5010 kPa | 711.46 ± 4.3
323.15 K, 5990 kPa | 712.35 ± 4.3
323.15 K, 7000 kPa | 713.23 ± 4.3
323.15 K, 8010 kPa | 714.1 ± 4.3
323.15 K, 8990 kPa | 714.96 ± 4.3
323.15 K, 10010 kPa | 715.8 ± 4.3
323.15 K, 11000 kPa | 716.66 ± 4.3
323.15 K, 12010 kPa | 717.49 ± 4.3
323.15 K, 13010 kPa | 718.29 ± 4.3
323.15 K, 14000 kPa | 719.09 ± 4.3
323.15 K, 15010 kPa | 719.88 ± 4.3
323.15 K, 16010 kPa | 720.66 ± 4.3
323.15 K, 17010 kPa | 721.43 ± 4.3
323.15 K, 17990 kPa | 722.2 ± 4.3
323.15 K, 18990 kPa | 722.94 ± 4.3
323.15 K, 20010 kPa | 723.68 ± 4.3
333.15 K, 100 kPa | 699.17 ± 4.2
333.15 K, 1000 kPa | 700.04 ± 4.2
333.15 K, 2010 kPa | 701.02 ± 4.2
333.15 K, 3000 kPa | 702.01 ± 4.2
333.15 K, 4010 kPa | 702.98 ± 4.2
333.15 K, 4990 kPa | 703.93 ± 4.2
333.15 K, 5990 kPa | 704.88 ± 4.2
333.15 K, 7000 kPa | 705.81 ± 4.2
333.15 K, 8000 kPa | 706.73 ± 4.2
333.15 K, 9010 kPa | 707.63 ± 4.2
333.15 K, 9990 kPa | 708.53 ± 4.3
333.15 K, 11000 kPa | 709.45 ± 4.3
333.15 K, 12000 kPa | 710.31 ± 4.3
333.15 K, 13010 kPa | 711.16 ± 4.3
333.15 K, 14000 kPa | 712.01 ± 4.3
333.15 K, 15000 kPa | 712.85 ± 4.3
333.15 K, 16010 kPa | 713.67 ± 4.3
333.15 K, 16990 kPa | 714.48 ± 4.3
333.15 K, 18000 kPa | 715.29 ± 4.3
333.15 K, 18990 kPa | 716.08 ± 4.3
333.15 K, 20000 kPa | 716.87 ± 4.3
343.15 K, 100 kPa | 691.44 ± 4.2
343.15 K, 1010 kPa | 692.33 ± 4.2
343.15 K, 2010 kPa | 693.38 ± 4.2
343.15 K, 2990 kPa | 694.42 ± 4.2
343.15 K, 4010 kPa | 695.45 ± 4.2
343.15 K, 4990 kPa | 696.46 ± 4.2
343.15 K, 6000 kPa | 697.46 ± 4.2
343.15 K, 7000 kPa | 698.44 ± 4.2
343.15 K, 8010 kPa | 699.41 ± 4.2
343.15 K, 8990 kPa | 700.37 ± 4.2
343.15 K, 10010 kPa | 701.31 ± 4.2
343.15 K, 11010 kPa | 702.25 ± 4.2
343.15 K, 12010 kPa | 703.17 ± 4.2
343.15 K, 13000 kPa | 704.08 ± 4.2
343.15 K, 14010 kPa | 704.97 ± 4.2
343.15 K, 15000 kPa | 705.86 ± 4.2
343.15 K, 16000 kPa | 706.73 ± 4.2
343.15 K, 17010 kPa | 707.59 ± 4.3
343.15 K, 18010 kPa | 708.44 ± 4.3
343.15 K, 18990 kPa | 709.28 ± 4.3
343.15 K, 19990 kPa | 710.1 ± 4.3
353.15 K, 100 kPa | 683.75 ± 4.1
353.15 K, 1010 kPa | 684.69 ± 4.1
353.15 K, 2000 kPa | 685.79 ± 4.1
353.15 K, 3010 kPa | 686.88 ± 4.1
353.15 K, 4010 kPa | 687.96 ± 4.1
353.15 K, 5010 kPa | 689.03 ± 4.1
353.15 K, 5990 kPa | 690.08 ± 4.2
353.15 K, 7000 kPa | 691.11 ± 4.2
353.15 K, 8000 kPa | 692.13 ± 4.2
353.15 K, 9000 kPa | 693.13 ± 4.2
353.15 K, 10000 kPa | 694.12 ± 4.2
353.15 K, 11010 kPa | 695.12 ± 4.2
353.15 K, 12000 kPa | 696.08 ± 4.2
353.15 K, 13000 kPa | 697.04 ± 4.2
353.15 K, 13990 kPa | 697.98 ± 4.2
353.15 K, 15000 kPa | 698.91 ± 4.2
353.15 K, 16000 kPa | 699.82 ± 4.2
353.15 K, 16990 kPa | 700.72 ± 4.2
353.15 K, 18010 kPa | 701.62 ± 4.2
353.15 K, 19000 kPa | 702.5 ± 4.2
353.15 K, 20000 kPa | 703.37 ± 4.2
363.15 K, 100 kPa | 676.12 ± 4.1
363.15 K, 990 kPa | 677.1 ± 4.1
363.15 K, 2010 kPa | 678.26 ± 4.1
363.15 K, 3000 kPa | 679.41 ± 4.1
363.15 K, 3990 kPa | 680.54 ± 4.1
363.15 K, 5010 kPa | 681.66 ± 4.1
363.15 K, 5990 kPa | 682.76 ± 4.1
363.15 K, 7000 kPa | 683.84 ± 4.1
363.15 K, 8010 kPa | 684.91 ± 4.1
363.15 K, 9010 kPa | 685.97 ± 4.1
363.15 K, 10010 kPa | 687 ± 4.1
363.15 K, 11000 kPa | 688.04 ± 4.1
363.15 K, 12010 kPa | 689.05 ± 4.1
363.15 K, 13010 kPa | 690.06 ± 4.2
363.15 K, 14000 kPa | 691.04 ± 4.2
363.15 K, 15010 kPa | 692.02 ± 4.2
363.15 K, 15990 kPa | 692.98 ± 4.2
363.15 K, 17000 kPa | 693.93 ± 4.2
363.15 K, 17990 kPa | 694.86 ± 4.2
363.15 K, 19000 kPa | 695.79 ± 4.2
363.15 K, 20000 kPa | 696.7 ± 4.2
